These results are taken from PMC8877962, “New Preservative-Free Formulation for the Enhanced Ocular Bioavailability of Prostaglandin Analogues in Glaucoma” (Pharmaceutics, 2022).

Usually LogP stands for a log measure of how a compound divides between an organic and an aqueous phase.

Like-named read-outs stand apart in the source and are kept apart here.

A short description of data set [1]: Differential scanning calorimetry of travoprost:excipient blends. The data set is classed as physicochemical. The protocol:
The differential scanning calorimetry (DSC) studies were performed using a DSC 3 thermal analysis device (Mettler-Toledo GmbH, Greinfensee, Switzerland) calibrated upstream with high-purity zinc (99.99%, Tfus = 419.6 ± 0.7 °C, ΔfusH = 107.5 ± 3.2 J.g^−1), high-purity indium (99.99%, Tfus = 156.6 ± 0.3 °C, ΔfusH = 28.45 ± 0.60 J.g^−1) and controlled with both, and Milli-Q water (Merck Millipore, Burlington, MA, USA). Each sample was introduced in a 100 µL aluminum pan which was hermetically sealed afterwards. The conditions of the sample preparation, as well as the applied temperature program, were strictly identical to avoid any thermal history dependence of the samples. The cycle, performed twice on each sample, was freezing from ambient temperature to −80 °C at a rate of 5 °C/min, then holding for 3 min at −80 °C, then heating to 25 °C, at a rate of 5 °C/min under a 60 mL/min dry air flow. Travoprost, NaHA and PS80 were analyzed either alone or as binary drug:excipient blends at different weight ratios (1:3, 1:1 and 3:1, respectively). Measurements were performed on 3 independent samples (n = 3). Thermogram evaluation was performed using STARe version 16.30 (Mettler-Toledo GmbH, Greinfensee, Switzerland).
(DSC measures the heat that a sample takes up or gives off during a temperature scan.)

A short description of data set [2]: Pyrene fluorescence spectroscopy (micelle formation, CMC determination). The note with it: pyrene 7.5 µM. Format: physicochemical. Here is the method:
Pyrene is a lipophilic fluorescent probe often used to determine the critical micellar concentration (CMC) of surfactants. Indeed, it has the interesting feature of being sensitive to the polarity of its environment and partitioning into micelles leading to an hyperchromicity. First, 40 mg of pyrene were dissolved into 10 mL of ethanol, this solution was diluted in water to achieve a stock solution with a concentration of 7.5 µM. This stock solution was used as solvent to prepare PS80 and NaHA solutions of different concentrations in triplicate. Fluorescence measurements were performed using a Varian Cary Eclipse fluorescence spectrophotometer and processed with the Cary Eclipse software version 1.1.132 (Agilent Technologies, Santa Clara, CA, USA). The data were acquired using an excitation wavelength of 230 nm with a 20 nm slit and by recording an emission scan from 350 to 450 nm with a 2.5 nm slit. Peaks 1 and 3, used to determine the fluorescence ratio I1/I3, were at approximately 372 and 383 nm, respectively. PS80 CMC was determined using a sigmoidal non-linear variable slope regression performed using GraphPad Prism version 8.0.2 for windows (GraphPad Software, San Diego, CA, USA). CMC was considered as the abscissa of the point at which the top of the sigmoid and the tangent to the inflection point crossed.

On the set-up of data set [3]: method as in doi:10.1007/s11743-000-0113-4. The note with it: surface tension measurement; cited from earlier work.
Details of data set [4]: method as in earlier work. The note with it: fluorescence-based method using pyrene-3-carboxaldehyde; cited from earlier work.
Details of data set [5]: method as in doi:10.1002/etc.5620171002. The note with it: cited from earlier work.
[6] abbreviates: Travoprost:Excipient mass ratio 1:0 (travoprost alone), n = 3.
Where [7] appears, read: Travoprost:Polysorbate 80 mass ratio 1:1.
[8] abbreviates: Travoprost:Polysorbate 80 mass ratio 1:3.
The mark [9] stands for this setting: Travoprost:Polysorbate 80 mass ratio 3:1.
Setting [10] is: Travoprost:Sodium Hyaluronate mass ratio 1:1.
The mark [11] stands for this setting: Travoprost:Sodium Hyaluronate mass ratio 1:3.
Where [12] appears, read: Travoprost:Sodium Hyaluronate mass ratio 3:1.

In the case of `CC(C)OC(=O)CCC/C=C\C[C@@H]1[C@@H](/C=C/[C@@H](O)COc2cccc(C(F)(F)F)c2)[C@H](O)C[C@@H]1O` [Travoprost], the Tg in data set [1] (setting [6]) was −21.9 ± 0.6 °C; in data set [1] (Travoprost:Excipient mass ratio 1:0 (travoprost alone), n = 3, listed as travoprost), “around −22 °C”; in data set [1] (setting [7]), −54.4 ± 0.6 °C; in data set [1] (setting [8]), −58.8 ± 0.7 °C; in data set [1] (setting [9]), −44.2 ± 0.7 °C; in data set [1] (setting [10]) it was −21.4 ± 0.6 °C. The Tg in data set [1] (setting [11]) is −22.3 ± 0.7 °C; in data set [1] (setting [12]), −20.3 ± 0.6 °C. Also, the “ΔCp normalized to travoprost content” value in data set [1] (setting [6]) is reported as −0.57 ± 0.05 J/g/K; in data set [1] (setting [7]), −2.04 ± 0.06 J/g/K; in data set [1] (setting [8]), −2.96 ± 0.07 J/g/K; in data set [1] (setting [9]), −1.32 ± 0.06 J/g/K; in data set [1] (setting [10]), −0.60 ± 0.05 J/g/K; in data set [1] (setting [11]), −0.55 ± 0.05 J/g/K. In addition, the “ΔCp normalized to travoprost content” value in data set [1] (setting [12]) is recorded as −0.58 ± 0.06 J/g/K. Moreover, the “shift in the Tg” value in data set [1] (in presence of PS80, when increasing the excipient content) is −22 to −58 °C.

Regarding Polysorbate 80 [PS80], the “I1/I3 fluorescence ratio of pyrene with increasing excipient concentration” value in data set [2] was “decrease”. In addition, the values for the CMC in data set [3] and in data set [4] were 0.018 mM and 0.015 mM, respectively.

For `c1cc2ccc3cccc4ccc(c1)c2c34` [pyrene, Pyrene], the LogP in data set [5] is 6.0.
